Patent US8952024B2, “Herbicidal pyrimidone derivatives” (E I du Pont de Nemours and Company, priority 2009, dated 2015)

How the values were obtained:
Assay in all cases: Test D pre-/postemergence plant response
Assay type in all cases: in vivo
[1] = system: dallisgrass (Paspalum dilatatum)
How it was run: (§1)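 Scores (0 no effect, 100 complete control) reflect visual assessment against untreated plants after 14 to 21 days. Treatments were pre- and postemergence sprays in solvent with surfactant.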

[2] = system: prickly sida (Sida spinosa)
How it was run: as §1

[3] = system: field bindweed (Convolvulus arvensis)
How it was run: as §1

[4] = system: mallow (common mallow, Malva sylvestris)
How it was run: as §1

[5] = system: black mustard (Brassica nigra)
How it was run: as §1

[6] = system: green foxtail (Setaria viridis)
How it was run: as §1

[7] = system: johnsongrass (Sorghum halepense)
How it was run: as §1

[8] = system: dayflower (Virginia (VA) dayflower, Commelina virginica)
How it was run: as §1

[9] = system: groundsel (common groundsel, Senecio vulgaris); settings: Postemergence
How it was run: as §1

[10] = system: sandbur (southern sandbur, Cenchrus echinatus)
How it was run: as §1

[11] = system: barnyardgrass (Echinochloa crus-galli)
How it was run: as §1

[12] = system: ragweed (common ragweed, Ambrosia elatior)
How it was run: as §1

[13] = system: itchgrass (Rottboellia cochinchinensis)
How it was run: as §1

[14] = system: quackgrass (Elytrigia repens)
How it was run: as §1

[15] = system: sowthistle (common sowthistle, Sonchus oleraceous); settings: Postemergence
How it was run: as §1

[16] = system: Italian ryegrass (Lolium multiflorum)
How it was run: as §1

[17] = system: purslane (common purslane, Portulaca oleracea)
How it was run: as §1

[18] = system: chickweed (common chickweed, Stellaria media); settings: Postemergence
How it was run: as §1

[19] = system: guineagrass (Panicum maximum)
How it was run: as §1

[20] = Postemergence, 31 g ai/ha, scale 0 to 100
[21] = Postemergence, 62 g ai/ha, scale 0 to 100 (0 no effect, 100 complete control)
[22] = Postemergence, 125 g ai/ha, scale 0 to 100 (0 no effect, 100 complete control)
[23] = Postemergence, 250 g ai/ha, scale 0 to 100 (0 no effect, 100 complete control)
[24] = Preemergence, 62 g ai/ha, scale 0 to 100
[25] = Preemergence, 125 g ai/ha, scale 0 to 100
[26] = Preemergence, 250 g ai/ha, scale 0 to 100
[27] = 62 g ai/ha, scale 0 to 100 (0 no effect, 100 complete control)
[28] = 125 g ai/ha, scale 0 to 100 (0 no effect, 100 complete control)
[29] = 250 g ai/ha, scale 0 to 100 (0 no effect, 100 complete control)

COCCn1c(-c2cc(F)cc(F)c2)ncc(C(=O)C2=C(O)C3CCC(C3)C2=O)c1=O (stereo not drawn) [Compound 243, 2-(3,5-difluorophenyl)-5-[(2-hydroxy-4-oxobicyclo[3.2.1]oct-2-en-3-yl)carbonyl]-3-(2-methoxyethyl)-4(3H)-pyrimidinone]
20: Plant response rating, Ryegrass, Italian [16, 21]
40: Plant response rating, Quackgrass [14, 21]
65: Plant response rating, Prickly Sida [2, 21] | Plant response rating, Field Bindweed [3, 20] | Plant response rating, Dayflower, VA [8, 21] | Plant response rating, Ragweed [12, 20] | Plant response rating, Ryegrass, Italian [16, 23]
50: Plant response rating, Mallow [4, 20] | Plant response rating, Mallow [4, 24] | Plant response rating, Black Mustard [5, 20] | Plant response rating, Itchgrass [13, 25] | Plant response rating, Purslane [17, 21] | Plant response rating, Purslane [17, 22] | Plant response rating, Purslane [17, 23] | Plant response rating, Chickweed [18, 27]
60: Plant response rating, Prickly Sida [2, 20] | Plant response rating, Mallow [4, 21] | Plant response rating, Chickweed [18, 28]
100: Plant response rating, Dallisgrass [1, 24] | Plant response rating, Dallisgrass [1, 25] | Plant response rating, Dallisgrass [1, 26] | Plant response rating, Prickly Sida [2, 24] | Plant response rating, Prickly Sida [2, 25] | Plant response rating, Prickly Sida [2, 26] | Plant response rating, Field Bindweed [3, 24] | Plant response rating, Field Bindweed [3, 25] | Plant response rating, Field Bindweed [3, 26] | Plant response rating, Black Mustard [5, 24] | Plant response rating, Black Mustard [5, 25] | Plant response rating, Black Mustard [5, 26] | Plant response rating, Foxtail, Green [6, 25] | Plant response rating, Foxtail, Green [6, 26] | Plant response rating, Johnsongrass [7, 24] | Plant response rating, Johnsongrass [7, 25] | Plant response rating, Johnsongrass [7, 26] | Plant response rating, Dayflower, VA [8, 24] | Plant response rating, Dayflower, VA [8, 25] | Plant response rating, Dayflower, VA [8, 26] | Plant response rating, Groundsel [9, 27] | Plant response rating, Groundsel [9, 28] | Plant response rating, Groundsel [9, 29] | Plant response rating, Sandbur [10, 25] | Plant response rating, Sandbur [10, 26] | Plant response rating, Barnyardgrass [11, 24] | Plant response rating, Barnyardgrass [11, 25] | Plant response rating, Barnyardgrass [11, 26] | Plant response rating, Ragweed [12, 25] | Plant response rating, Ragweed [12, 26] | Plant response rating, Itchgrass [13, 26] | Plant response rating, Ryegrass, Italian [16, 26] | Plant response rating, Purslane [17, 25] | Plant response rating, Purslane [17, 26] | Plant response rating, Guineagrass [19, 24] | Plant response rating, Guineagrass [19, 25] | Plant response rating, Guineagrass [19, 26]
0: Plant response rating, Ryegrass, Italian [16, 20]
85: Plant response rating, Foxtail, Green [6, 21] | Plant response rating, Itchgrass [13, 23] | Plant response rating, Quackgrass [14, 25] | Plant response rating, Guineagrass [19, 23]
75: Plant response rating, Dallisgrass [1, 20] | Plant response rating, Black Mustard [5, 21] | Plant response rating, Johnsongrass [7, 23] | Plant response rating, Dayflower, VA [8, 23] | Plant response rating, Sandbur [10, 20] | Plant response rating, Sandbur [10, 21] | Plant response rating, Sandbur [10, 22] | Plant response rating, Barnyardgrass [11, 20] | Plant response rating, Ragweed [12, 22] | Plant response rating, Ragweed [12, 23] | Plant response rating, Itchgrass [13, 20] | Plant response rating, Itchgrass [13, 21] | Plant response rating, Itchgrass [13, 22] | Plant response rating, Quackgrass [14, 23] | Plant response rating, Guineagrass [19, 21] | Plant response rating, Guineagrass [19, 22]
98: Plant response rating, Mallow [4, 26] | Plant response rating, Black Mustard [5, 22] | Plant response rating, Black Mustard [5, 23] | Plant response rating, Foxtail, Green [6, 23] | Plant response rating, Groundsel ([9]; 31 g ai/ha, scale 0 to 100) | Plant response rating, Quackgrass [14, 26] | Plant response rating, Sowthistle [15, 29] | Plant response rating, Ryegrass, Italian [16, 25]
70: Plant response rating, Prickly Sida [2, 22] | Plant response rating, Field Bindweed [3, 21] | Plant response rating, Field Bindweed [3, 22] | Plant response rating, Field Bindweed [3, 23] | Plant response rating, Mallow [4, 22] | Plant response rating, Mallow [4, 23] | Plant response rating, Johnsongrass [7, 20] | Plant response rating, Johnsongrass [7, 21] | Plant response rating, Johnsongrass [7, 22] | Plant response rating, Dayflower, VA [8, 22] | Plant response rating, Ragweed [12, 21] | Plant response rating, Quackgrass [14, 22] | Plant response rating, Chickweed [18, 29] | Plant response rating, Guineagrass [19, 20]
90: Plant response rating, Dallisgrass [1, 22] | Plant response rating, Dallisgrass [1, 23] | Plant response rating, Foxtail, Green [6, 22] | Plant response rating, Barnyardgrass [11, 23] | Plant response rating, Sowthistle ([15]; 31 g ai/ha, scale 0 to 100) | Plant response rating, Sowthistle [15, 27]
95: Plant response rating, Sowthistle [15, 28] | Plant response rating, Purslane [17, 24]
35: Plant response rating, Foxtail, Green [6, 24] | Plant response rating, Dayflower, VA [8, 20] | Plant response rating, Quackgrass [14, 20] | Plant response rating, Purslane [17, 20] | Plant response rating, Chickweed ([18]; 31 g ai/ha, scale 0 to 100)
25: Plant response rating, Itchgrass [13, 24]
80: Plant response rating, Dallisgrass [1, 21] | Plant response rating, Prickly Sida [2, 23] | Plant response rating, Mallow [4, 25] | Plant response rating, Foxtail, Green [6, 20] | Plant response rating, Sandbur [10, 23] | Plant response rating, Barnyardgrass [11, 21] | Plant response rating, Barnyardgrass [11, 22]
30: Plant response rating, Ryegrass, Italian [16, 22]
